The term Ki denotes a dissociation constant, usually derived from enzyme kinetics or from competition with a known ligand. Higher therefore signals lower affinity. As a reminder, the melting point is the temperature of the solid-liquid transition. The term IC50 denotes the concentration that gives 50% inhibition.

Molecules are shown by their SMILES.

For data set [1], the target named is hCA IX (Homo sapiens, UniProt Q16790). Briefly: stopped flow CO2 hydrase assay, hCA IX.
Excerpt: (§1) A stopped flow CO2 hydrase assay was adopted using an SX.18 MV-R Applied Photophysics (Oxford, UK) stopped-flow instrument to assess the inhibition against the various CA isozymes[33].
Data set [2] has as its target hCA XII (Homo sapiens, UniProt O43570). Briefly: stopped flow CO2 hydrase assay, hCA XII.
Excerpt: as §1
Data set [3] addresses hCA I (Homo sapiens, UniProt P00915). Briefly: stopped flow CO2 hydrase assay, hCA I. The note with it: for inhibitory activity against hCA I (in words): abstract statement.
Excerpt: as §1
The target in data set [4] is hCA II (Homo sapiens, UniProt P00918). Put plainly: stopped flow CO2 hydrase assay, hCA II.
Excerpt: as §1
The test system of data set [5] is hCAII. The note with it: read-out: IC50 against hCAII; cited from earlier work.

Sequence of hCA XII (O43570 25-354): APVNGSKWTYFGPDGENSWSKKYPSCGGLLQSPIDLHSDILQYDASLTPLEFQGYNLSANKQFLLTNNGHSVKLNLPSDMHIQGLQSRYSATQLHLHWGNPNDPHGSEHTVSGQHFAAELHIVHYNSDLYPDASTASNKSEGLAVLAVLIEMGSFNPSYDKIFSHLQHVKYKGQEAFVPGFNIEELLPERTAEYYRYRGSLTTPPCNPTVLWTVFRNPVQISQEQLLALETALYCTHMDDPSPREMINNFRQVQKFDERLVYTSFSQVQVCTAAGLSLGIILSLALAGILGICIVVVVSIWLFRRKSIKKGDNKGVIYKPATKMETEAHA
Sequence of hCA I (P00915 whole entry): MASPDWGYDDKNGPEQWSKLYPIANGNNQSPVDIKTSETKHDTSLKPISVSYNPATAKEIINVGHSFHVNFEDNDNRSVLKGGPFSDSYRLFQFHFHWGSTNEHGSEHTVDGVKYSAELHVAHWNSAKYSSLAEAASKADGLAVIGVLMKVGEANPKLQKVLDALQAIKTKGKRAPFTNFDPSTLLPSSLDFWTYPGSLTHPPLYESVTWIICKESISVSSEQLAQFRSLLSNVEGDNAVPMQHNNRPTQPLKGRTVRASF

`NS(=O)(=O)c1ccc(NC(=S)NC(=O)c2ccccc2)cc1` [Compound 4a, N-[(4-Sulphamoylphenyl)carbamothioyl]benzamide]: the figures for the Ki in data set [1] and in data set [2] were 0.106 µM and 0.0574 µM, respectively.
`NS(=O)(=O)c1ccc(NC(=S)NC(=O)c2ccc(Cl)cc2)cc1` [Compound 4b, 4-Chloro-N-[(4-sulfamoylphenyl)carbamothioyl]benzamide]: the melting point is 226 to 234 °C. In addition, in data set [3], the Ki stood at 0.0585 µM and the “inhibitory activity against hCA I (in words)” value (from here on “inhibitory activity”) is “significant inhibitory activity”. This compound returned a Ki in data set [4] of 0.0581 µM. Also, the affinity in data set [1] corresponds to a Ki of 0.115 µM. Further, the Ki in data set [2] is greater than 100 µM.
`NS(=O)(=O)c1ccc(NC(=S)NC(=O)c2ccc(Cl)c(Cl)c2)cc1` [Compound 4c, 3,4-Dichloro-N-[(4-sulphamoylphenyl)carbamothioyl]benzamide] showed a melting point of 206 to 208 °C. Moreover, in data set [3], the Ki amounted to 0.0404 µM and the “inhibitory activity” value is on record as “significant inhibitory activity”. This compound also returned a Ki in data set [4] of 0.09 µM. In addition, the Ki in data set [1] is greater than 100 µM. In data set [2], this compound yielded a Ki of 0.0881 µM.
The compound `NS(=O)(=O)c1ccc(NC(=S)NC(=O)c2ccc(Br)cc2)cc1` [Compound 4d, 4-Bromo-N-[(4-sulfamoylphenyl)carbamothioyl]benzamide] registered a melting point of 215 to 217 °C. In data set [3], the affinity, expressed as Ki, was 0.065 µM and the “inhibitory activity” value is “significant inhibitory activity”. The compound also returned a Ki in data set [4] of 0.067 µM. In data set [1], the Ki was greater than 100 µM. In data set [2], this compound registered a Ki of 0.082 µM.
As to `O=C(O)c1ccc(NC(=S)NC(=O)c2ccccc2)cc1` [Compound 5a, 4-(3-Benzoylthioureido)benzoic acid], the melting point lay in the range of 212 to 224 °C. Also, affinity in data set [3] was put at a Ki of 1.5 µM. In addition, in data set [4], the Ki is 0.465 µM. In data set [1], this compound came in with a Ki of 2.93 µM. In data set [2], this compound came in with a Ki greater than 100 µM.
On to `O=C(O)c1ccc(NC(=S)NC(=O)c2ccc(Cl)cc2)cc1` [Compound 5b, 4-[3-(4-Chlorobenzoyl)thioureido]benzoic acid], for which the melting point lay in the range of 232 to 240 °C. Also, in data set [3], the affinity corresponds to a Ki of 8.8 µM. This compound displayed a Ki in data set [4] of 5.54 µM. This compound displayed an inhibition constant Ki in data set [1] greater than 100 µM. In data set [2], the Ki was greater than 100 µM.
`O=C(O)c1ccc(NC(=S)NC(=O)c2ccc(Cl)c(Cl)c2)cc1` [Compound 5c, 4-[3-(3,4-Dichlorobenzoyl)thioureido]benzoic acid] showed a melting point of 216 to 218 °C. The compound further showed a Ki in data set [3] greater than 100 µM. This compound also showed a Ki in data set [4] of 6 µM. In data set [1], this compound displayed a Ki of 1.74 µM. Also, the Ki in data set [2] is greater than 100 µM.
`O=C(O)c1ccc(NC(=S)NC(=O)c2ccc(Br)cc2)cc1` [Compound 5d, 4-[3-(4-Bromobenzoyl)thioureido]benzoic acid] showed a melting point of 206 to 215 °C. Besides, in data set [3], the Ki stood at 5.56 µM and the “inhibitory activity” value was “significant inhibitory activity”. The same compound displayed a Ki in data set [4] greater than 100 µM. This compound had a Ki in data set [1] greater than 100 µM. In data set [2], this compound yielded a Ki greater than 100 µM.
In turn, `CCOC(=O)c1ccc(NC(=S)NC(=O)c2ccccc2)cc1` [Compound 6a, Ethyl-4-(3-benzoylthioureido)benzoate] returned a melting point of 223 to 235 °C. The same compound returned a Ki in data set [3] greater than 100 µM. This compound gave a Ki in data set [4] greater than 100 µM. Further, in data set [1], the Ki was 1.74 µM. The Ki in data set [2] was greater than 100 µM.
In the case of `CCOC(=O)c1ccc(NC(=S)NC(=O)c2ccc(Cl)cc2)cc1` [Compound 6b, Ethyl 4-[3-(4-chlorobenzoyl)thioureido]benzoate], the melting point fell in the range of 219 to 221 °C. For the same compound, in data set [3], the Ki is greater than 100 µM. For the same compound, in data set [4], the Ki was greater than 100 µM. Besides, the affinity in data set [1], expressed as Ki, was 1.4 µM. Besides, in data set [2], the Ki is greater than 100 µM.
In turn, `CCOC(=O)c1ccc(NC(=S)NC(=O)c2ccc(Cl)c(Cl)c2)cc1` [Compound 6c, Ethyl 4-[3-(3,4-dichlorobenzoyl)thioureido]benzoate] gave a melting point of 216 to 218 °C. In data set [3], this compound returned a Ki of 0.809 µM. In addition, the Ki in data set [4] was greater than 100 µM. The compound also registered a Ki in data set [1] of 0.239 µM. This compound also returned a Ki in data set [2] greater than 100 µM.
In the case of `CCOC(=O)c1ccc(NC(=S)NC(=O)c2ccc(Br)cc2)cc1` [Compound 6d, Ethyl-4-[3-(4-bromobenzoyl)thioureido]benzoate], the melting point lay within 218 to 220 °C. Moreover, in data set [3], affinity was put at a Ki of 0.0854 µM. The affinity in data set [4] corresponds to a Ki of 0.031 µM. In addition, in data set [1], the inhibition constant Ki was greater than 100 µM. The Ki in data set [2] is greater than 100 µM.
With `COc1cc(NC(C)=O)ccc1C(=O)NC(=S)Nc1ccc(S(N)(=O)=O)cc1` [Compound 12a, 4-Acetamido-2-methoxy-N-[(4-sulfamoylphenyl)carbamothioyl]benzamide], the melting point lay in the range of 225 to 227 °C. Also, in data set [3], the affinity corresponds to a Ki of 0.0676 µM and the “inhibitory activity” value is recorded as “significant inhibitory activity”. Also, in data set [4], the Ki was 0.0155 µM. The Ki in data set [1] turned out to be 0.0322 µM. The inhibition constant Ki in data set [2] was 0.083 µM.
Regarding `COc1cc(NC(=O)C(C)C)ccc1C(=O)NC(=S)Nc1ccc(S(N)(=O)=O)cc1` [Compound 12b, 4-Isobutyramido-2-methoxy-N-[(4-sulfamoylphenyl)carbamothioyl] benzamide], the melting point lay within 248 to 250 °C. The compound further had a Ki in data set [3] greater than 100 µM. The same compound yielded a Ki in data set [4] of 2.77 µM. Besides, the Ki in data set [1] turned out to be 1.78 µM. In data set [2], this compound had a Ki greater than 100 µM.
Consider `COc1cc(NC(=O)c2ccc(C)cc2)ccc1C(=O)NC(=S)Nc1ccc(S(N)(=O)=O)cc1` [Compound 12c, 2-Methoxy-4-(4-methylbenzamido)-N-[(4-sulfamoylphenyl)carbamothioyl] benzamide], for which the melting point was 250 to 252 °C. Also, in data set [3], the affinity, expressed as Ki, was 0.091 µM and the “inhibitory activity” value was “significant inhibitory activity”. Further, the Ki in data set [4] is 0.0942 µM. Further, the Ki in data set [1] came out at 0.144 µM. The Ki in data set [2] was 0.226 µM.
In the case of `COc1cc(NC(C)=O)ccc1C(=O)NC(=S)Nc1ccc(C(=O)O)cc1` [Compound 13a, 4-[3-(4-Acetamido-2-methoxybenzoyl)thioureido]benzoic acid], the melting point fell in the range of 245 to 247 °C. The compound further yielded an inhibition constant Ki in data set [3] of 1.71 µM. Further, the Ki in data set [4] was 0.647 µM. In addition, the Ki in data set [1] is 1.09 µM. Also, in data set [2], the Ki is greater than 100 µM.
The corresponding values for `COc1cc(NC(=O)C(C)C)ccc1C(=O)NC(=S)Nc1ccc(C(=O)O)cc1` [Compound 13b] are 256 to 258 °C, greater than 100 µM, 0.193 µM, 0.289 µM and greater than 100 µM.
`COc1cc(NC(=O)c2ccc(C)cc2)ccc1C(=O)NC(=S)Nc1ccc(C(=O)O)cc1` [Compound 13c, 4-(3-(2-Methoxy-4-(4-methylbenzamido)benzoyl)thioureido]benzoic acid] gave a melting point of 281 to 283 °C. Besides, the Ki in data set [3] was greater than 100 µM. For the same compound, the Ki in data set [4] came out at 0.504 µM. Also, the Ki in data set [1] was 0.802 µM. Besides, in data set [2], the inhibition constant Ki was greater than 100 µM.
The compound `CCOC(=O)c1ccc(NC(=S)NC(=O)c2ccc(NC(C)=O)cc2OC)cc1` [Compound 14a, Ethyl-4-[3-(4-acetamido-2-methoxybenzoyl)thioureido]benzoate] yielded a melting point of 237 to 239 °C. In addition, in data set [3], the inhibitory constant (Ki) is greater than 100 µM. For the same compound, the Ki in data set [4] is greater than 100 µM. This compound returned a Ki in data set [1] of 1.15 µM. The Ki in data set [2] was greater than 100 µM.
Turning to `CCOC(=O)c1ccc(NC(=S)NC(=O)c2ccc(NC(=O)C(C)C)cc2OC)cc1` [Compound 14b, Ethyl-4-[3-(4-isobutyramido-2-methoxybenzoyl)thioureido]benzoate], the melting point fell in the range of 245 to 247 °C. This compound also gave a Ki in data set [3] greater than 100 µM. The compound also displayed a Ki in data set [4] greater than 100 µM. The affinity in data set [1] corresponds to a Ki of 1.5 µM. Besides, in data set [2], the Ki is greater than 100 µM.
Consider `CCOC(=O)c1ccc(NC(=S)NC(=O)c2ccc(NC(=O)c3ccc(C)cc3)cc2OC)cc1` [Compound 14c, Ethyl-4-[3-(2-methoxy-4-(4-methylbenzamido)benzoyl)thioureido]benzoate], for which the melting point is 257 to 259 °C. For the same compound, the Ki in data set [3] was greater than 100 µM. In data set [4], this compound returned a Ki of 2.02 µM. Also, in data set [1], the Ki came out at 1.37 µM. The Ki in data set [2] was greater than 100 µM.
As to `O=C(NC(=S)Nc1ccccc1)c1ccc(C(F)(F)F)cc1` [III], the IC50 in data set [5] was 2.48 µM.
`COc1ccc(NC(=S)NC(=O)c2ccc(C(F)(F)F)cc2)cc1OC` [II]: in data set [5], the IC50 is 1.9 µM.
With `CC(=O)NC(=S)Nc1ccc(S(N)(=O)=O)cc1` [IV], the IC50 in data set [5] was 2.14 µM.

The record behind these values is article PMC9542353, “Design and synthesis of some new benzoylthioureido phenyl derivatives targeting carbonic anhydrase enzymes” (Journal of Enzyme Inhibition and Medicinal Chemistry, 2022).
